Patent US10183027B2, “Lanthanide toolbox for multi-modal, non-invasive tumor specific theranostic prodrugs” (priority 2016, dated 2019)
Where “and” joins values, the source holds several entries; their conditions need not be identical. Equal entries are not always repeated. One block for each molecule: values may come before it.

Key:
[1] = T1 weighted in vivo 7T MRI imaging and bio-distribution; set-up: species or system BALB/c mice
Protocol: In vivo 7T MRI measurements of the disclosed compounds in normal mice were conducted. The images were acquired at various time points after solutions of commercial GdDOTA complex (DOTAREM), GdL and PtGdL were injected. […] GdL was immediately captured by the liver, spleen and the kidneys (FIGS. 13A and 14A). […] In comparison to GdDOTA, GdL presents a similar pattern of biodistribution in the kidneys but a slower clearance rate in the liver (0.002 vs 0.016 enh/min). However, PtGdL presents a delayed capture, longer remanence and clearance compared to GdL.
All animal experiments were performed in accordance with the institutional animal protocol guidelines in place at Paris Descartes University, (saisine CEEA34.JS.142.1) and approved by the Institute's Animal Research Committee.
Wild-type female 8 weeks BALB/c mice (Elevage Janvier, Le Genest-St-Isle, France) were anaesthetized with isoflurane (1.5%, with air/O2 0.5/0.25 L·min^−1) inhalation and placed in a dedicated contention cradle. 300 μL of Gadolinium complexes in 0.9% physiological serum were intravenously injected via the tail vein while the mouse was in the scanner. For reproducibility studies, 3 mice per group were injected (n=3).
The scanning protocol was developed using Bruker Paravision 5.1 software. DCE Dynamic contrast Enhanced sequence was recorded using Intragate Flash multislices for motion free artifacts T1 weighted sequence (TR=100 ms, TE=4 ms, alpha=80°). The final images have a spatial resolution of […] in plane. The total scan time was in the order of 3 min 14 s per images. The dynamic follow-up is measured during in a scan time of 40 minutes.
To study the biodistribution of each complex, several regions of interest (ROI) were monitored: the liver, muscle, spleen, kidney, and vessels. The corresponding MRI intensity related to the amount of the Gd complex contrast agents was plotted versus time to visualize the uptake and clearance of each complex into the organs. Comparison with commercial GdDOTA (DOTAREM, Guerbet, France) was also performed at the corresponding concentration of Gd (10 mM).

HeLa cells [2] = test: MTT dark cytotoxicity in HeLa cells (PtGdL study); format: cell-based, human; conditions: 24 hours
Protocol: (§1) Human cervical cancer HeLa cells were grown in Dulbecco's Modified Eagle Medium (DMEM). Human lung diploid fibroblasts-MRC-5 and prostate stromal-WPMY-1 cells were obtained from the cell resource center of Shanghai Institute of Biological Sciences, Chinese Academy of Sciences. MRC-5 and WPMY-1 are growth in MEM (GIBCO 41500034) and supplemented with 10% (v/v) fetal bovine serum, 1% penicillin and streptomycin at 37° C. and 5% CO2. […] After that, formazan was fully dissolved in DMSO through oscillation. Finally, the absorbance of solution was measured with Biotek Power wave xsMicroplate Reader at the wavelength of 570 nm and 690 nm.

HeLa cells [3] = test: Two-photon induced activation, in vitro imaging and photo-cytotoxicity of PtGdL; format: cell-based, human
Protocol: The cells were incubated with PtGdL (1, 2, 5, 10 μM) for 12 hours. The complexes (cell impermeable and dissolved in the medium) were washed out with PBS buffer. The cells with complexes were placed in the tissue culture chamber (5% CO2, 37° C.) inside the two-photon confocal microscope. In vitro images were captured by using the Leica SP8 (upright configuration) confocal microscope which equipped with femto-second laser (wavelength: 700 to 1000 nm) and 40×/60× oil immersion objective. […]

WPMY-1 cells = test: MTT dark cytotoxicity in WPMY-1 cells (PtGdL study); format: cell-based, human; conditions: 24 hours
Protocol: as §1

[4] = Photo-induced dissociation of the cisplatin unit in tris buffer monitored by emission; format: physicochemical; conditions: tris buffer pH 7.4, UV 365 nm, 5 mW
Protocol: One of the key issues is the photodissociation level of the Pt moiety from the compounds described herein. The triplet states of the chromophores before and after photo-release the drug or upon binding with αvβ3 isoform were measured. Based on the synthetic protocols described herein, La (lanthanum) and Gd (gadolinium) analogs can be synthesized to measure the triplet states of the chromophores as well. The measurements of the triplet states of these chromophores phosphorescence and their phosphorescence lifetime was undertaken at low temperature (77K). The photodissociation kinetics of PtEuL were investigated by monitoring the emission spectrum with different irradiation times of UVA/NIR (light dosage=4 J cm^−2). The plot of responsive and initial emission intensity at 615 nm (^5D0→^7F2) vs time will be fitted in the exponential growth and decay equation to obtain the pseudo-first order rate constant.
The linear light induced dissociation of PtGdL in tris buffer (20 mM Tris base, 50 mM NaCl, pH 7.4) was monitored by determination of the emission intensity of solution of PtGdL in tris buffer with different light dosage of 365 nm UV light. In general, 3 mL of the solution of PtGdL (3 μM in tris buffer) in a 3.5 mL quartz cuvette was irradiated with a 365 nm UV lamp (5 mW) with stirring. The emission spectra of the solution were recorded at different time points (0, 1, 3, 5, 7, 10, 15, 20, 30, 45, 60, 75 and 90 min).
(Ln=Eu or Gd). The solution-state electronic adsorption and emission spectra of all the complexes and the ligand were recorded at 298 K (FIGS. 28A-28D). The EuL complex is the product of PtEuL after photo-dissociation and was used to monitor the photo-dissociation of [Pt—(NH3)2Cl]^+ from PtEuL. […] The photo-dissociation of PtEuL (3 μM in Tris-buffer, pH=7.4, 50 mM NaCl) was monitored by the variation of the Eu emission (λem=615 nm, ^5D0→^7F2) with the irradiation time. […] The pseudo-first order rate constant k was determined to be 0.53 min^−1 under these experimental conditions (FIG. 28D).

[5] = Dynamic light scattering of PtGdL solution; format: physicochemical; conditions: aqueous solution, 25.0° C.
Protocol: Dynamic Light Scattering (DLS) to investigate the presence of aggregates in a PtGdL solution was performed in Mavernm Zetasizer Nano-S equipment, at 25.0° C.

[6] = Photo-induced dissociation and dark stability of RuEuL in aqueous solution; format: physicochemical
Protocol: The photo-induced dissociation of RuEuL was simultaneously studied by emission (FIG. 21) spectroscopy, and by HPLC (FIG. 22) of the RuEuL solution (5 μM in H2O) after continuous irradiation with visible light (λirr.=488 nm, 1 W) during various times (1-8 min). After irradiation, turned-on europium emission is observed. This observation can be explained by the existence of dissociative states on Ru(II), which were proposed by Saddler et al. The photo-dissociation products, EuL and [Ru(OH)(bpy)2(H2O)]^+, have been further qualitatively identified by HPLC (FIG. 22). Before light irradiation, only one HPLC peak corresponding to RuEuL (retention time, R=11.3 min) is observed. After irradiation, this peak disappears, and two peaks of dissociated photoproducts appear.
In order to obtain the exact amount of the photo-released ruthenium(II) moiety for biomedical purpose and to evaluate drug release in real time, quantitative analysis is required. It can be achieved by LC/ESI-MS for simultaneous detection of the photo-products EuL and [Ru(OH)(bpy)2(H2O)]^+. Moreover, the switchable europium(III) emission can be considered as a real-time signaling technique for the released anticancer Ru(II) complexes and can also be exploited quantitatively. […]

HeLa cells [7] = test: Dark and photo cytotoxicity of RuEuL against HeLa cells; format: cell-based, human; conditions: HeLa
Protocol: To determine the potential of RuEuL as a photo-controlled prodrug cell cytotoxicity studies were performed on human cervical cancer (HeLa) cells, and EuL as control (FIGS. 25A and 25B). Cells were incubated 6 hours in the dark before irradiation (488 nm, 1 J); dark controls were run in parallel.

Plasmid DNA [8] = test: Agarose gel electrophoresis of plasmid DNA with RuEuL / EuL; format: biochemical; conditions: 20 μM
Protocol: Furthermore, the interaction of photo-activated RuEuL with DNA was examined by agarose gel electrophoresis (FIG. 24). Plasmid DNA (22.5 μg/mL in Tris/EDTA (TE) buffer) was incubated with the compounds (20 μM), irradiated by 488 nm light (dose 50 J m^−2) or not (control) and then subjected to 1% agarose gel electrophoresis. The separated DNA was stained with GelRed Nucleic Acid Stain (BIOTIUM) and imaged using Tanon 1600 Gel Imaging System (Tanon Science & Technology Co., Ltd).

HeLa cells [9] = test: Confocal microscopy of light-induced cytotoxicity of RuEuL; format: cell-based, human; conditions: 50 μM RuEuL or 10 μM PtEuL, 6 hours, 7 mW
Source text: The light-induced cytotoxicity of RuEuL towards HeLa cells was also investigated by confocal microscopy (FIG. 26B) with the PtEuL complex tested under identical conditions for comparison. […] In cell culture studies, red Eu(III) emission from RuEuL was observed after 15-min irradiation. (FIG. 26A) The emission intensity increased with longer irradiation time because more excitation energy induced the dissociation of more Ru(II) moieties from the parent molecules, and the resulting EuL units generated stronger light emission. […] PtEuL is photo-activated upon ultraviolet A irradiation (λ=365 nm). However, UVA irradiation could cause severe adverse effects on human cells.

Plasmid DNA [10] = test: Agarose gel electrophoresis of plasmid DNA after UVA irradiation (PtEuL); format: biochemical; conditions: 20 μM, UVA light dose 50 J m^−2
Source text: The DNA gel images were obtained using GelRed Nucleic Acid Stain (BIOTIUM).
Direct binding of PtEuL with DNA in dark were studied by circular dichroism (CD). […] The interaction of photo-activated PtEuL with DNA was examined by agarose gel electrophoresis (FIG. 29B). After UVA irradiation with PtEuL, conversion of the supercoiled conformer of the plasmid DNA to its open-circular conformer, which indicates DNA nicking (single strand break) and linear conformer, which indicates double strand break, is clearly seen.

- clearance rate in the liver ([1]; mice, i.v. tail vein): 0.016 enh/min
Compound: O=C([O-])CN1CCN(CC(=O)[O-])CCN(CC(=O)[O-])CCN(CC(=O)[O-])CC1.[Gd+3] [GdDOTA, reference compound]

Compound: O.O=C([O-])CN1CCN(CC(=O)[O-])CCN(Cc2cc(C#Cc3ccc(NC(=O)c4ccncc4)cc3)ccn2)CCN(CC(=O)[O-])CC1.[Gd+3] [GdL]
- IC50 (HeLa cells [2]): > 200 µM
- cell death, control under the same experimental conditions (HeLa cells [3]; with 730 nm laser irradiation): no significant cell death
- IC50 (WPMY-1 cells): > 200 µM
- decrease of signal enhancement ([1]; 4 hours after injection): 90%
- clearance rate in the liver ([1]; mice, i.v. tail vein): 0.002 enh/min

Compound: O.O=[N+]([O-])[O-].[Gd+3].[NH3+][Pt-2]([NH3+])([Cl])[n+]1ccc(C(=O)Nc2ccc(C#Cc3ccnc(CN4CCN(CC(=O)[O-])CCN(CC(=O)[O-])CCN(CC(=O)[O-])CC4)c3)cc2)cc1 [PtGdL]
- IC50 (HeLa cells [2]): ~23.6 µM and ~25 µM
- dosage concentration at which dramatic cell death can be observed (HeLa cells [3]; 730 nm laser excitation for 30 min): less than 5 μM
- emission and cell death absent exposure to laser irradiation (HeLa cells [3]; no laser irradiation): no significant emission and/or cell death
- IC50 (WPMY-1 cells): 43.9 ± 1.1 µM
- change of signal enhancement ([1]; after 24 hours): did not change greatly
- remanence time in renal cortex ([1]; mice, i.v. tail vein): 4 to 18 h
- delay in capture, depending on the tissue of interest ([1]; mice, liver, spleen, kidneys): 6 to 9 min
- pseudo-first order rate constant k for the dissociation of the cisplatin unit [4]: 0.051 min⁻¹
- PDI (DLS) [5]: 0.156
- size of aggregates in solution (DLS) ([5]; single peak): 672±24 nm

- stability in the dark ([6]; dark, 37° C., 24 hours): stable
Compound: O.O=C([O-])CN1CCN(CC(=O)[O-])CCN(Cc2cc(C#Cc3ccc(NC(=O)c4cc[n+]([Ru-4]56([Cl])([n+]7ccccc7-c7cccc[n+]75)[n+]5ccccc5-c5cccc[n+]56)cc4)cc3)ccn2)CCN(CC(=O)[O-])CC1.[Cl-].[Eu+3] [RuEuL]
- pseudo-first order rate constant k of photo-dissociation ([6]; 5 μM in H2O, visible laser irradiation, 1 W): 0.43 min⁻¹
- IC50 (HeLa cells [7]; 6 hours in the dark then irradiation (488 nm, 1 J), read-out: light IC50): 32.5 µM
- IC50 (HeLa cells [7]; dark, read-out: dark IC50): > 200 µM
- migration of DNA with light excitation (Plasmid DNA [8]; 488 nm light, dose 50 J m^−2): delayed
- migration of DNA without irradiation (Plasmid DNA [8]; control lanes): left the DNA intact and showed normal migration
- cell damage and red emission on 488 nm laser irradiation (HeLa cells [9]): cell lysis was detected after 15-min irradiation

Compound: N.N.[Cl][Pt][Cl] [cisplatin, reference compound]
- DNA photocleavage activity (Plasmid DNA [10]): less significantly
